Experimental data reported in patent US6878522B2, “Methods for the identification of compounds useful for the treatment of disease states mediated by prostaglandin D2” (priority 2000, dated 2005).
pEC50: −log10 of the molar value.

Experiments:
CRTH2 [1] = target: T1, CRTH2 (Homo sapiens, UniProt Q9Y5Y4); experiment: Competition with 3H-PGD2 binding at the CRTH2 receptor (Examples 6-9); details: from IC50 at CRTH2 and at DP
T1 construct: prolactin (prolac) signal peptide (N); expressed in transfected cells; host or cells: 300-19 cells (transformed murine pre-B lymphocytes)
T1 sequence (Q9Y5Y4 1-395): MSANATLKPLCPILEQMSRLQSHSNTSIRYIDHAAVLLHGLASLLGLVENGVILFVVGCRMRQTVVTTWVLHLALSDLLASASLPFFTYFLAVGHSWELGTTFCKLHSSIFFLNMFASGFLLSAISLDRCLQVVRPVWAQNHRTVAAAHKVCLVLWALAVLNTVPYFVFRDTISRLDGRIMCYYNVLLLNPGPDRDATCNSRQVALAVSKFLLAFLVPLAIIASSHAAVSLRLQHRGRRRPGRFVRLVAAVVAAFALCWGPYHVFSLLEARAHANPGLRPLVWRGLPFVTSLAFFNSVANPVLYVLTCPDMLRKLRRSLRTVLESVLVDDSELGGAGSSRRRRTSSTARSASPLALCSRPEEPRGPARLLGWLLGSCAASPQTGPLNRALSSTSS
Method: To directly determine the binding affinity of CRTH2 for PGD2, the following binding assay was used. Transfected and parental 300-19 cells were washed twice at room temperature with assay buffer, and resuspended at a concentration of 2×10^7 cells/ml. Using a 96-well U-bottom polypropylene plate (Costar, Corning Inc., Acton, Mass.), the assay was set up as follows: 50 μl of vehicle (0.3% DMSO in assay buffer, total wells) or of […] cold PGD2 (NS wells); 50 μl cells (2×10^7 cells/ml for 10^6 cells per well); 50 μl 6 nM [3H]-PGD2. The plate was allowed to incubate for 20 min at RT before centrifugation (2800 rpm, Sorval RT6000, 5 min, 4° C.). The plate was harvested (Packard Unifilter plate GF/C, previously soaked in 3% PEI for at least 1 hr) with cold assay buffer using a Packard Filtermate Cell Harvester (6×150 μl buffer wash per well). The filterplate was dried overnight. After the addition of 50 μl scintillation fluid (Packard Microscint 0), the plate was counted in a Packard Topcount scintillation counter (1 min per well). […] The solutions of labeled PGD2 and unlabeled “cold” PGD2 were prepared as follows: 10 μl of [^3H]-PGD2 (Amersham lot # TRK734 162 Ci/mmol, 0.1 Ci/ml in methanol: water: acetonitrile (3:2:1), 617 nM) per ml assay buffer was used to prepare a solution of [^3H]-PGD2 at a concentration of 6 nM (50 μl/well for final conc. of 2 nM); cold PGD2 (Biomol #PG-005, lot # P4653) was dissolved in DMSO for a stock of 10 mM (stored at −20° C.). The 10 mM stock was diluted 3:1000 to obtain a final concentration of […] (50 μl/well for final conc. of […]). Assay buffer: Hank's balanced saline supplemented with HEPES and sodium bicarbonate: 100 ml/L of 10× Hank's Balanced saline (with Ca^+2, Mg^+2); 10 ml/L of 1M HEPES; 4.7 ml/L of 7.5% Sodium Bicarbonate.
In the assay, the capacity of each D-ring compound to compete with binding of ^3H-PGD2 was measured at both the CRTH2 and DP receptors, and an IC50 value (in μM) was determined. […] The binding assay procedure of Example 1 was used. Preferably, the ratio of IC50 at CRTH2 to IC50 at DP is less than about twenty, and more preferably is […].

[2] = test system: isolated human eosinophils; experiment: [Ca2+]i mobilization in isolated human eosinophils; format: cell-based
Excerpt: Calcium mobilization can be detected and measured by flow cytometry, and by labeling with fluorescent dyes that are trapped intracellularly. […] The ratio of fluorescence produced by the calcium-bound dye to that produce by the unbound dye is used to estimate the intracellular calcium concentration. In one embodiment, for example, the following method can be used. Cells that express CRTH2 are collected, and resuspended in fresh media at ˜2×10^5/ml the day before performing the calcium flux assay. Cells are incubated at 37° C. for not longer than 20-30 minutes, and then spun down and resuspended in 50 ml fresh PTI buffer (Hank's Buffer, pH 7.2-7.4; 10 mM Hepes; 1.6 mM CaCl2) containing Indo-1 AM, pre-warmed to 37° C., at a concentration of 10 million per ml. Cells are excited, and fluorescence is measured using a fluorimeter (Photon Technology Corporation, International). After the readout has stabilized, the time axis is reset, and PGD2 is added at a specific time point (e.g., 20 seconds). After response, the following reagents are added to the cuvette, to release and chelate total calcium, in the following order: 20 μl of 18% Triton X-100, 20 μl of 3M Tris, pH 8.5, and 20 μl of 0.5 M EGTA, pH 8.5. The experiment is repeated in the presence and the absence of a test compound. […] Therefore, in the presence of an […] test compound, the EC50 would be expected to be higher than this value, whereas in the presence of an agonist test compound, the EC50 would be expected to decrease.

[3] = test system: isolated human eosinophils; experiment: Reactive oxygen species (ROS) release in isolated human eosinophils; format: cell-based
Method: Another secondary assay is the reactive oxygen species release assay. One measure of PGD2-induced activation of CRTH2 cells, such as eosinophils, is the intracellular release of reactive oxygen species. This can be tested in a reactive oxygen species release assay, or ROS, using lucigenin-dependent chemiluminescence to measure reactive oxygen species release. In this method, freshly isolated eosinophils are prepared, by standard methods, and resuspended at concentration 2-4×10^6 cells/ml in (RPMI; 10 mM HEPES; 1× Pen/Strep; 0.5% FBS) at room temperature. Immediately prior to use, 1 ml of cell suspension is added to 9 ml of buffer, prewarmed to 37° C. for 15 minutes, and added 0.5 ml of 200 mM Lucigenin.
Test compounds (made as 10,000× DMSO stocks) are diluted in buffer with DMSO (1.5 ul of DMSO/2.5 ml Buffer) and 25 μl/well added to white 96-well culture plate and placed in a 37° C. incubator. Isolated cells (held at room temperature) are diluted with room temperature buffer to 2-4×10^6 cells/ml, and incubated in a water bath at 37° C. for 15 minutes. At 15 minutes, 0.5 ml 200 mM lucigenin (bis-N-Methylacridinium Nitrate; Sigma, St. Louis, Mo.) is added to 10 ml of the cell suspension, mixed, and 100 μl/well is added to the prewarmed microtiter plate. The plate is returned to 37° C. for 5 minutes, at which time 25 μl of stimulus is added) The plate is read in the luminometer for 8 cycles. The luminescence of test compounds can be tested in the presence of PGD2, relative to a control sample containing PGD2 alone. A compound that interferes with the ability of PGD2 to result in intracellular reactive oxygen species release in CRTH2 cells, is a candidate for a CRTH2 antagonist.

[4] = test system: human whole blood eosinophil; experiment: Human whole blood eosinophil actin-polymerization response; format: cell-based; details: read-out: Actin-polymer EC50
Excerpt: Yet another secondary screening assay is an actin polymerization assay. Another biological effect of the interaction of PGD2 with CRTH2 is actin polymerization. Thus, an actin polymerization assay may be used as a secondary screen to characterize the activity of a compound isolated in the primary screening assays of the invention. In one embodiment, actin polymerization may be assayed using an actin-specific fluorescent label, nitrobenzoxadiazole (NBD)-phallacidin, which binds polymerized actin fiber. In a specific embodiment, the assay may be performed as follows: cell preparations are resuspended at 5-10×10^6 cells/ml in RPMI 1640 plus 10 mM HEPES, 100/10 Pen/Strep, and 0.5% FCS. The cell suspension is aliquoted (100 μL per well) into a 96-well U-bottom polypropylene microtiter plate. 50 ul of the appropriate stimulus (PGD2 or test compound, or both PGD2 and test compound) is added using an 8-channel pipette followed exactly 25 seconds later by 50 ul of a stopping solution which contains lysophosphotidylcholine (0.5 mg/ml), Hank's balanced salt solution (100 ul 10×), 16% formaldehyde (800 ul), and 6.6 uM NBD-phallacidin in MEOH (100 ul). The plate is allowed to sit at room temperature for 15 minutes. The plate is then centrifuged at 1000 rpm for 5 minutes, the supernatants flicked off and the cell pellets resuspended in 250 ul PBS plus 2%FCS and 0.2% sodium azide. Each sample is then read on a FACS Caliber instrument. Cells are gated using the forward scatter/side scatter data in the lymphocyte area. Responses are measured by the change in median FL-1 fluorescence between vehicle treated cells and stimulus treated cells. Test compounds can be assayed in the presence and absence of PGD2, and compared to a sample containing PGD2 alone. A compound that reduces PGD2-induced actin polymerization of CRTH2 cells is identified as a candidated CRTH2 antagonist.

[5] = test system: isolated human eosinophils; experiment: Chemotaxis of isolated human eosinophils; format: cell-based
Method: In a specific example of this method, a competitive assay is performed to test compounds for their ability to interrupt the attraction of CRTH2 cells to PGD2. In this method, test compounds are diluted into the bottom wells of the Boyden chemotaxis chamber. A constant amount of PGD2 is also added to this dilution series, at a concentration known to have a chemotactic effect on CRTH2 cells. As a control, at least one aliquot contains only PGD2. Cells expressing CRTH2 are resuspended at 3-3.5×10^6 cells/ml in RPMI 1640 supplemented with 10 mM HEPES and 1 mg/ml bovine serum albumin (Sigma, St. Louis, Mo.), and placed into the upper wells of the chamber. The chambers are incubated for 90-120 minutes at 37° C. in a humidified CO2 incubator. After the incubation period, the number of migrating cells on the lower surface of the membrane filter is counted using light microscopy. The contribution of the test compound to the chemotactic activity of PGD2 is measured by comparing the chemotactic activity of the aliquots containing only PGD2 with the activity of aliquots containing test compound and PGD2. If addition of the test compound to the PGD2 solution results in a […] in the number of cells detected on the lower surface of the membrane relative to the number of cells detected using a solution containing only PGD2, then there is identified an antagonist of PGD2 induction of chemotactic activity of cells expressing CRTH2. In contrast, if the addition of the test compound to the PGD2 solution results in a […] in the number of cells detected on the lower surface of the membrane (relative to the number of cells detected using a solution containing only PGD2), then an […] of PGD2 induction of chemotactic activity of cells expressing CRTH2 is identified.
The chemotactic response of human T lymphocytes to PGD2, murine MDC and murine mSDF was also assayed. Chemotaxis was determined using a 48-well Boyden chamber (Neuroprobe, Cabin John, Md.), and 3.0 μm polycarbonate filters. Cells were resuspended (3-3.5×10^6 cells/ml) in RPMI 1640 supplemented with 10 mM HEPES and 1 mg/ml bovine serum albumin (Sigma, St. Louis, Mo.), and placed into the upper wells of the chamber. The compound to be tested was placed in the lower wells. The chambers were incubated for 90-120 minutes at 37° C. in a humidified CO2 incubator. At the end of the incubation period, the number of migrating cells on the filter (expressed per high power field) were enumerated microscopically. […] In FIG. 4, the chemotactic response of human basophils to PGD2 and C5a is shown.

CRTH2 [6] = target: T1, CRTH2; experiment: [Ca2+]i mobilization assay in 300-19 cells expressing CRTH2; format: cell-based; details: CRTH2 stable cell line (300-19 transfectants)
Excerpt: Using 300-19 cells (transformed pre-B lymphocytes) expressing CRTH2, a number of mast cell and non-mast cell-derived mediators were screened in a [Ca^2+]i mobilization assay. […]

Q: With `CCCCCC(=O)CCC1C(=O)CC(O)C1C/C=C\CCCC(=O)O` (stereo not drawn) [13,14-dihydro-15-keto PGD2] as the molecule, how does the “selectivity for the CRTH2 receptor (in comparison with DP)” value (“selectivity for the CRTH2 receptor” below) (CRTH2 [1]) read?
A: The value was “particularly selective for CRTH2”.

Q: For `CCCCC[C@@](C)(O)/C=C/[C@H]1C(=O)C[C@H](O)[C@@H]1C/C=C\CCCC(=O)O` [15(R)15-methyl PGD2], which “selectivity for the CRTH2 receptor” value (CRTH2 [1]) is on record?
A: Its value is “particularly selective for CRTH2”.

Q: Which “selectivity for the CRTH2 receptor” value (CRTH2 [1]) does the source give for `CCCCC/C=C\C=C1\C(=O)CC(O)C1C/C=C\CCCC(=O)O` (stereo not drawn) [15-deoxy-delta 12, 14, PGD2] here?
A: The value was “particularly selective for CRTH2”.

Q: Which results are given for `CCCCC[C@H](O)/C=C/[C@@H]1[C@@H](C/C=C\CCCC(=O)O)[C@H]2CO[C@@H]1C2` [Compound U-46619]?
A: pEC50 [2]: < 6.00; pEC50 [3]: < 7.00

Q: How did the pEC50 [4] turn out when `CCCCC[C@H](O)/C=C/[C@@H]1[C@H]2C/C(=C/CCCC(=O)O)O[C@H]2C[C@H]1O` [PG12] was run?
A: Its pEC50 is < 4.00.

Q: What about the pEC50 [5] of the same molecule?
A: The pEC50 was < 7.00.

Q: What about the pEC50 [2] of the same molecule?
A: The pEC50 was < 6.00.

Q: What about the pEC50 [3] of the same molecule?
A: The pEC50 was < 6.00.

Q: What does the source list for `CCCCC[C@H](O)/C=C/[C@H]1[C@H](O)CC(=O)[C@@H]1CCCCCCC(=O)O` [PGE1]?
A: pEC50 [4]: < 4.00; pEC50 [5]: < 7.00; pEC50 [2]: < 6.00; pEC50 [3]: < 7.00

Q: `CCCCC[C@H](O)/C=C/[C@@H]1[C@@H](C/C=C\CCCC(=O)O)[C@@H](O)C[C@@H]1O` [Pa, 11b-PGF2] was tested. Which pEC50 [4] did it give?
A: Its pEC50 is < 6.00.

Q: And the pEC50 [5]?
A: Its pEC50 is < 7.00.

Q: What about the pEC50 [3] of the same molecule?
A: The pEC50 was < 7.00.

Q: PGJ2 was tested. Which pEC50 [4] did it give?
A: The pEC50 was 5.74.

Q: And the pEC50 [5]?
A: Its pEC50 is < 7.00.

Q: What about the pEC50 [2] of the same molecule?
A: The pEC50 was 6.89.

Q: What about the pEC50 (CRTH2 [6]) of the same molecule?
A: Its pEC50 is 6.70.

Q: What about the pEC50 [3] of the same molecule?
A: The pEC50 was 7.12.
